# Like-named read-outs stand apart in the source and are kept apart here.
# Tests used:
# [1] = tested on: 13-resistant mutant of Mtb H37Rv; type: cell-based, Mycobacterium tuberculosis
# (UniProt A0A0H3M9R5) = experiment: biochemical; type: binding, Mycobacterium bovis BCG
# (UniProt A0A0H3MC72) = experiment: biochemical; type: binding, Mycobacterium bovis BCG
# (UniProt A0A0H3MFG4) = experiment: biochemical; type: binding, Mycobacterium bovis BCG
# (UniProt A0A0H3MB87) = experiment: biochemical; type: binding, Mycobacterium bovis BCG
# (UniProt A0A0H3MB87), sequence (A0A0H3MB87 1-463): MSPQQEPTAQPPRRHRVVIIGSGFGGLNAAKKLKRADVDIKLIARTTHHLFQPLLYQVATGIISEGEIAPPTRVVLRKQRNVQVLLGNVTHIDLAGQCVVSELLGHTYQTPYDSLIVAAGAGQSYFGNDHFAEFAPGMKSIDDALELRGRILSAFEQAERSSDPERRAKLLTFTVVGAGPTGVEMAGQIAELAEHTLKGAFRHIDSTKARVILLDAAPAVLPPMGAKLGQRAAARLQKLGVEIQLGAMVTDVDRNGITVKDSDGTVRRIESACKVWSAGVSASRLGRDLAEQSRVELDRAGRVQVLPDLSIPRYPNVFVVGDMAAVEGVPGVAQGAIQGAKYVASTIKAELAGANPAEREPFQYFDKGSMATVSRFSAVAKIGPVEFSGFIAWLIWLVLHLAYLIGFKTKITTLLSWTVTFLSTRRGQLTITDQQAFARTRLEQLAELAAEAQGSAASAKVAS
# (UniProt A0A0H3MFG4), sequence (A0A0H3MFG4 1-834): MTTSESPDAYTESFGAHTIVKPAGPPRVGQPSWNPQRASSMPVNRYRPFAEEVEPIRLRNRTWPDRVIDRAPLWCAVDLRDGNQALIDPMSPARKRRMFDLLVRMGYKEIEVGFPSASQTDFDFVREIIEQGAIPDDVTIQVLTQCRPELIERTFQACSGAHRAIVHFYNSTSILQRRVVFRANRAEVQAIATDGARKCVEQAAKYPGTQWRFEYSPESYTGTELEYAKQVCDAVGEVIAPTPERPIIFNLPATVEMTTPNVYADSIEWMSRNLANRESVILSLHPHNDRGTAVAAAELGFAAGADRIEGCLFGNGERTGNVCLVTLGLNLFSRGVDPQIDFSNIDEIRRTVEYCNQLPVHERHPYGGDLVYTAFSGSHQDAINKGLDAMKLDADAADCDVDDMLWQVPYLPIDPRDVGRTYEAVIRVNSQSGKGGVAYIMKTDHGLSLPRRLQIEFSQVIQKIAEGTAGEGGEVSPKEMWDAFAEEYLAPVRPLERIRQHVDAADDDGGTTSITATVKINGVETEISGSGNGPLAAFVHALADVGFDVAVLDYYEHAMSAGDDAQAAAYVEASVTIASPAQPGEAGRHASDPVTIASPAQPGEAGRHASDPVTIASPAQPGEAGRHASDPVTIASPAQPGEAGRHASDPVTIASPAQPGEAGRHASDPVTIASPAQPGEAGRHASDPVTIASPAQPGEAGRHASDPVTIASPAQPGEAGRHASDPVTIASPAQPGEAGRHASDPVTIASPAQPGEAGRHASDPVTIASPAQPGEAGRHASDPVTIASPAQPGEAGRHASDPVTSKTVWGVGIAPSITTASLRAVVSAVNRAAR
# (UniProt A0A0H3MC72), sequence (A0A0H3MC72 1-488): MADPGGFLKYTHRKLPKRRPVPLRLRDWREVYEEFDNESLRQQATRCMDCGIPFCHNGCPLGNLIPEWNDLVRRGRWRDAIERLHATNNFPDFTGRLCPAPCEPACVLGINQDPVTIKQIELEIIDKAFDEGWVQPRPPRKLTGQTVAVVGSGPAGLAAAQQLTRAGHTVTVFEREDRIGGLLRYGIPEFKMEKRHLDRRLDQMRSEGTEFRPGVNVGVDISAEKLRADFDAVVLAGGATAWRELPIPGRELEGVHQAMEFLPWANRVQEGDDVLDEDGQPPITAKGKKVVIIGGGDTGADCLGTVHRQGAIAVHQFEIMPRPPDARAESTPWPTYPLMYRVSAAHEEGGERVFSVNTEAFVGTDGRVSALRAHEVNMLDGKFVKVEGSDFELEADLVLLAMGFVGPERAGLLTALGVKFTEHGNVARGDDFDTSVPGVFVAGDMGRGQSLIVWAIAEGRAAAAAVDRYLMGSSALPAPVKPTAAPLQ
# (UniProt A0A0H3M9R5), sequence (A0A0H3M9R5 1-518): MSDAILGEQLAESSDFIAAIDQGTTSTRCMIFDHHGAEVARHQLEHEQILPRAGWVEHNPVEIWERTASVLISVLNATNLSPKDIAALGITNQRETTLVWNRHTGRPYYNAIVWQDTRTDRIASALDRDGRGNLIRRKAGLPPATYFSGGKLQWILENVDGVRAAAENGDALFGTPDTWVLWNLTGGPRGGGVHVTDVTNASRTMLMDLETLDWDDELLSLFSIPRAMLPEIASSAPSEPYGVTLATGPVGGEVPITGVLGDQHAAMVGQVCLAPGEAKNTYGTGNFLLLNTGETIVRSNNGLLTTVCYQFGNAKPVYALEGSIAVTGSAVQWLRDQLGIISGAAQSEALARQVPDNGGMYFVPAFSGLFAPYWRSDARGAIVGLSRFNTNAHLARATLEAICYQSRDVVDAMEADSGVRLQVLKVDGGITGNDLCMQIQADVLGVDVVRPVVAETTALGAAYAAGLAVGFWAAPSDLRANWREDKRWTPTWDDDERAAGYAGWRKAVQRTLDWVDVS
smiles,measurement,setting,value
"COc1ccc(NC(=O)c2cc(N(C)Cc3ccccc3)ncn2)cc1 [Compound 1, 6-(Benzyl(methyl)amino)-N-(4-methoxyphenyl)pyrimidine-4-carboxamide]",14 day GAST/Fe MIC99 against 13-resistant mutant,[1],>160 µM
"CN(Cc1ccc(C(F)(F)F)nc1)c1cc(C(=O)Nc2ccccc2)ncn1 [Compound 20, 6-(Methyl((6-(trifluoromethyl)pyridin-3-yl)methyl)amino)-N-phenylpyrimidine-4-carboxamide]",14 day GAST/Fe MIC99 against 13-resistant mutant,[1],>160 µM
"CC(C)Oc1ccc(NC(=O)c2cc(N(C)Cc3ccc(F)cc3)ncn2)cc1 [Compound 36, 6-((4-Fluorobenzyl)(methyl)amino)-N-(4-isopropoxyphenyl)pyrimidine-4-carboxamide]",14 day GAST/Fe MIC99 against 13-resistant mutant,[1],>160 µM
"CN(Cc1ccc(F)cc1)c1cc(C(=O)Nc2ccccc2)ncn1 [Compound 10, 6-((4-Fluorobenzyl)(methyl)amino)-N-phenylpyrimidine-4-carboxamide]",14 day GAST/Fe MIC99 against 13-resistant mutant,[1],>160 µM
"COc1ccc(NC(=O)c2cc(N(C)Cc3cccc(F)c3)ncn2)cc1 [Compound 13, 6-((3-Fluorobenzyl)(methyl)amino)-N-(4-methoxyphenyl)pyrimidine-4-carboxamide]",14 day GAST/Fe MIC99 against 13-resistant mutant,[1],>160 µM
"O=C(Nc1ccccc1)c1ccc(=O)n(Cc2ccc(F)cc2)c1 [Compound 25, 1-(4-Fluorobenzyl)-6-oxo-N-phenyl-1,6-dihydropyridine-3-carboxamide]",IC50,(UniProt A0A0H3M9R5); read-out: IC50,≥ 30 µM
same,IC50,(UniProt A0A0H3M9R5); read-out: pIC50 (converted),≥ 30.2 µM
same,IC50,(UniProt A0A0H3MC72); read-out: IC50,≥ 30 µM
same,IC50,(UniProt A0A0H3MC72); read-out: pIC50 (converted),≥ 30.2 µM
same,IC50,(UniProt A0A0H3MFG4); read-out: IC50,≥ 30 µM
same,IC50,(UniProt A0A0H3MFG4); read-out: pIC50 (converted),≥ 30.2 µM
same,IC50,(UniProt A0A0H3MB87); read-out: IC50,≥ 30 µM
same,IC50,(UniProt A0A0H3MB87); read-out: pIC50 (converted),≥ 30.2 µM

# Reference: publication PMC5748279, “Novel Antitubercular 6-Dialkylaminopyrimidine Carboxamides from Phenotypic Whole-Cell High Throughput Screening of a SoftFocus Library: Structure–Activity Relationship and Target Identification Studies” (Journal of Medicinal Chemistry, 2017)
